In article PMC6199744, “Development of Chemical Proteomics for the Folateome and Analysis of the Kinetoplastid Folateome” (ACS Infectious Diseases, 2018):
Like-named read-outs stand apart in the source and are kept apart here.

Key:
Assay type in all cases: binding
[1] = target: T1, HeLa cell extract proteins (Homo sapiens, UniProt O95619)
T1 construct: endogenous in cells; host or cells: HeLa cell extract

[2] = target: T2, HeLa cell extract proteins (Homo sapiens, UniProt P00367)
T2 construct: endogenous in cells; host or cells: HeLa cell extract

[3] = target: T3, HeLa cell extract proteins (Homo sapiens, UniProt P07355)
T3 construct: endogenous in cells; host or cells: HeLa cell extract

[4] = target: T4, HeLa cell extract proteins (Homo sapiens, UniProt P17858)
T4 construct: endogenous in cells; host or cells: HeLa cell extract
T4 sequence (P17858 1-780): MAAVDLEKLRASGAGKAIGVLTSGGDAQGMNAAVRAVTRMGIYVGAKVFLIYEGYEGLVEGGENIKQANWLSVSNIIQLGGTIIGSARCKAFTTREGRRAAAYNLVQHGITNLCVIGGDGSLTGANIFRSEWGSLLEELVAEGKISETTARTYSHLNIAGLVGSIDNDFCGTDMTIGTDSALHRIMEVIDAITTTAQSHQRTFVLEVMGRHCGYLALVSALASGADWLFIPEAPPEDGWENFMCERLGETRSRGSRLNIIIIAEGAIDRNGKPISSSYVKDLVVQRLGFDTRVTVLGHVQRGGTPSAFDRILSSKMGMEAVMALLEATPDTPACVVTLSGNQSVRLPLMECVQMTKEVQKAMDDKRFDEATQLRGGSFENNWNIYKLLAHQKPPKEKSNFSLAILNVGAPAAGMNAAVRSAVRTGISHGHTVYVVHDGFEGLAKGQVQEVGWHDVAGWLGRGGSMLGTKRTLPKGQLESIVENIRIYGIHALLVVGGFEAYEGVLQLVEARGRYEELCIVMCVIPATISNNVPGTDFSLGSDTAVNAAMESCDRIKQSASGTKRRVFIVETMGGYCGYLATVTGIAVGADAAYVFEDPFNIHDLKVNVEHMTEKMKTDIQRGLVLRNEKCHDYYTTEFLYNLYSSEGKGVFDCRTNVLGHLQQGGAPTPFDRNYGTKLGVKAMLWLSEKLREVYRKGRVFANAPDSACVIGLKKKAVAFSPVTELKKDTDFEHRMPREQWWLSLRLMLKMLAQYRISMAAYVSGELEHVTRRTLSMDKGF

[5] = target: T5, HeLa cell extract proteins (Homo sapiens, UniProt P26038)
T5 construct: endogenous in cells; host or cells: HeLa cell extract

[6] = target: T6, HeLa cell extract proteins (Homo sapiens, UniProt P35232)
T6 construct: endogenous in cells; host or cells: HeLa cell extract
T6 sequence (P35232 1-272): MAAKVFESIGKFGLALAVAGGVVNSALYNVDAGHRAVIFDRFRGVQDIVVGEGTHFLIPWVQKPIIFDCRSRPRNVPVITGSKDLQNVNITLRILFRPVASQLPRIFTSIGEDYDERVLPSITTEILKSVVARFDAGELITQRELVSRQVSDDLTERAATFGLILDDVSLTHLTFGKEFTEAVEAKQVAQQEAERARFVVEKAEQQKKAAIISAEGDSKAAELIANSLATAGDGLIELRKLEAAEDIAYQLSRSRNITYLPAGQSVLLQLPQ

[7] = target: T7, HeLa cell extract proteins (Homo sapiens, UniProt P40763)
T7 construct: endogenous in cells; host or cells: HeLa cell extract

[8] = target: T8, HeLa cell extract proteins (Homo sapiens, UniProt P60174)
T8 construct: endogenous in cells; host or cells: HeLa cell extract

[9] = target: T9, HeLa cell extract proteins (Homo sapiens, UniProt Q13907)
T9 construct: endogenous in cells; host or cells: HeLa cell extract

[10] = target: T10, HeLa cell extract proteins (Homo sapiens, UniProt Q15907)
T10 construct: endogenous in cells; host or cells: HeLa cell extract
T10 sequence (Q15907 1-218): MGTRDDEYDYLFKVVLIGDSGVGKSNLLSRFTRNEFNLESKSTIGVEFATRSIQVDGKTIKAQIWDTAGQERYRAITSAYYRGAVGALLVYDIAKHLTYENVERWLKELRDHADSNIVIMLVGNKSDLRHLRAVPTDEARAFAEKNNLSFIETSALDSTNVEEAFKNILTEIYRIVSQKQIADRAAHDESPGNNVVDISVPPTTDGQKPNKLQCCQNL

[11] = target: T11, HeLa cell extract proteins (Homo sapiens, UniProt Q16576)
T11 construct: endogenous in cells; host or cells: HeLa cell extract

[12] = target: T12, HeLa cell extract proteins (Homo sapiens, UniProt Q9BQB6)
T12 construct: endogenous in cells; host or cells: HeLa cell extract

[13] = target: T13, HeLa cell extract proteins (Homo sapiens, UniProt Q9H0U4)
T13 construct: endogenous in cells; host or cells: HeLa cell extract

[14] = target: T14, HeLa cell extract proteins (Homo sapiens, UniProt Q9H583)
T14 construct: endogenous in cells; host or cells: HeLa cell extract

[15] = HeLa, protein TPI1 (ISOFORM 1 OF TRIOSEPHOSPHATE ISOMERASE.)
[16] = HeLa, protein IDI1 (ISOPENTENYL-DIPHOSPHATE DELTA ISOMERASE.)

T12 sequence (Q9BQB6 whole entry): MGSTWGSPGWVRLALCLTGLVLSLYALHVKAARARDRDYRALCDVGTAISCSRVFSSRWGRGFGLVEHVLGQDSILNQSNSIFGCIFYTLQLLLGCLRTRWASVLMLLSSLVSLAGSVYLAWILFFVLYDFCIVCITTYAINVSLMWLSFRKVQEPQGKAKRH
T8 sequence (P60174 whole entry): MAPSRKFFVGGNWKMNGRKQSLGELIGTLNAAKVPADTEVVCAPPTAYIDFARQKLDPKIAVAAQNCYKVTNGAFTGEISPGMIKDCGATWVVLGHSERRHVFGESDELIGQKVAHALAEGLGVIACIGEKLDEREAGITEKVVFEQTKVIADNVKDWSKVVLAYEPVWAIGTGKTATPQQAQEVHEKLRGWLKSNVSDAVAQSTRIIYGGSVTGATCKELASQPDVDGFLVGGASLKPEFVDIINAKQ
T14 sequence (Q9H583 whole entry): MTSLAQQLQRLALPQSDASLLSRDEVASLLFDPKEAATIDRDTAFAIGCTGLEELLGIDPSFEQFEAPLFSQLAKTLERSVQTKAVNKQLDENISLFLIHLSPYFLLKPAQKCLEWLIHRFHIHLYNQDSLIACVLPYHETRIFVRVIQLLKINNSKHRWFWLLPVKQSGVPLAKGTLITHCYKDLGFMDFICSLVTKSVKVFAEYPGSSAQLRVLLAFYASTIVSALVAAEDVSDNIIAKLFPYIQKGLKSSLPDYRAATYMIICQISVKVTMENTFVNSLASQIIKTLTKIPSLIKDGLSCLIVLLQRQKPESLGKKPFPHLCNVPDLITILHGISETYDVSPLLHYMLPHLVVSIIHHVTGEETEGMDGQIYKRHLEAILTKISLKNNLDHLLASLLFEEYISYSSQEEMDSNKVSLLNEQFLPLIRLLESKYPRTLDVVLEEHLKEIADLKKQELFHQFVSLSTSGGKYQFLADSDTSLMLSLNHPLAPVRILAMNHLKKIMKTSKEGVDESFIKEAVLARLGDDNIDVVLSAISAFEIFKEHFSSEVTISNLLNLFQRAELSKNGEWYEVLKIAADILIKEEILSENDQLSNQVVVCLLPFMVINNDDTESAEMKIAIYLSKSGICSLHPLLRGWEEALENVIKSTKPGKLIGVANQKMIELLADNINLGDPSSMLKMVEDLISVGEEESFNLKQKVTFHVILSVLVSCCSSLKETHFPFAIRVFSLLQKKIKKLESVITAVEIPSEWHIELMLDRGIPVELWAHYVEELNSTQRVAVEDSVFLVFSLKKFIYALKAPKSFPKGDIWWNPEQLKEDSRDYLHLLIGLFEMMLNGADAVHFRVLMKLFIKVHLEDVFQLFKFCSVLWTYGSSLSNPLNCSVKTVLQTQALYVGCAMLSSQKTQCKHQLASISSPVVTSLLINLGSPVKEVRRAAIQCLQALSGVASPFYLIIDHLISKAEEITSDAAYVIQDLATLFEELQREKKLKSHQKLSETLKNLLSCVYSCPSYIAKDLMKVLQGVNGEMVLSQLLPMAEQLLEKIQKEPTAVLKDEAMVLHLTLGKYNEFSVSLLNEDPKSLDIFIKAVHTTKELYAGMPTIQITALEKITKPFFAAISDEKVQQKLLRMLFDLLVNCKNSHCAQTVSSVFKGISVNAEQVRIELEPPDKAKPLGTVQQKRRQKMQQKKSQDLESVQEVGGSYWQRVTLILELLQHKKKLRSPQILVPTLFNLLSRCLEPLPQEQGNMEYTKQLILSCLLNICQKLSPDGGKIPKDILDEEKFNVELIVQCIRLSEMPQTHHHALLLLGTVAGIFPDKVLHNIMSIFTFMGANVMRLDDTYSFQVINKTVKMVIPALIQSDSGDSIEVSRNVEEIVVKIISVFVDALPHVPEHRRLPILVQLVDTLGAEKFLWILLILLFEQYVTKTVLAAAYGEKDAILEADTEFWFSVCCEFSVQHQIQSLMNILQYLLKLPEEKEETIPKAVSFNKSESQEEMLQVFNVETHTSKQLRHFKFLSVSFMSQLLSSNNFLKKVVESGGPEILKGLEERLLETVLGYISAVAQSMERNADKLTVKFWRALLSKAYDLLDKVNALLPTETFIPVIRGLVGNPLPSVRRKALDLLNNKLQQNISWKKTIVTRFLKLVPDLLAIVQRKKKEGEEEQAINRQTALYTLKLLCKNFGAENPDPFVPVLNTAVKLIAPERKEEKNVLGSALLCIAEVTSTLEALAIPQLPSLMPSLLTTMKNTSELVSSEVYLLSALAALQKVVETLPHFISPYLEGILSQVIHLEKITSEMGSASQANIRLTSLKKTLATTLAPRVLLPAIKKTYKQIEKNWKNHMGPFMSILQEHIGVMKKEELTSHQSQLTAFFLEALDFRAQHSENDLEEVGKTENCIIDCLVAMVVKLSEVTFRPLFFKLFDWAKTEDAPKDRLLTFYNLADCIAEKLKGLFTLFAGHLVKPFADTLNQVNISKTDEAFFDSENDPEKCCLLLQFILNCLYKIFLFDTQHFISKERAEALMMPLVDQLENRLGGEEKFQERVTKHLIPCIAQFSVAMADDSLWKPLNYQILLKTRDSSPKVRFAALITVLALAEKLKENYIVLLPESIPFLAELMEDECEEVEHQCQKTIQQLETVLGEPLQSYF
T3 sequence (P07355 whole entry): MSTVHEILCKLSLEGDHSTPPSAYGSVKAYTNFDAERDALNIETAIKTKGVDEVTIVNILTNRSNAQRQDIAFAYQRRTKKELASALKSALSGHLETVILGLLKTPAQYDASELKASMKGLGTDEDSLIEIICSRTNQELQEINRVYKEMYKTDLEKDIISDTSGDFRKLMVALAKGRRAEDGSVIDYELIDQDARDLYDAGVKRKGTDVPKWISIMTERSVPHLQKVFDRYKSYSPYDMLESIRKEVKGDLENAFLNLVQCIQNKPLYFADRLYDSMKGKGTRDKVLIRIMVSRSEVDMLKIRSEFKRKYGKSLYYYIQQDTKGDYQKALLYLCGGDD
T9 sequence (Q13907 whole entry): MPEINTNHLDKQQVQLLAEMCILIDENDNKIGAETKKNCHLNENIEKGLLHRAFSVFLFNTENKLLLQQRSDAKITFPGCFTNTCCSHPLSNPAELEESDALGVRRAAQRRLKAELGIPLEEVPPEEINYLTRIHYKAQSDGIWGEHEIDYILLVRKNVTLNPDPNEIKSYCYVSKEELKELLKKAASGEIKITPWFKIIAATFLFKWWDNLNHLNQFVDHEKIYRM
T13 sequence (Q9H0U4 whole entry): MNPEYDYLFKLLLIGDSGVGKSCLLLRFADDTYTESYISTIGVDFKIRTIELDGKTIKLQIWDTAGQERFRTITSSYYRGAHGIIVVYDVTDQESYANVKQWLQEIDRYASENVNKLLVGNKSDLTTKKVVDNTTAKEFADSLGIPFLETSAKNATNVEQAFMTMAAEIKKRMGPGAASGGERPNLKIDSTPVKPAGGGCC
T11 sequence (Q16576 whole entry): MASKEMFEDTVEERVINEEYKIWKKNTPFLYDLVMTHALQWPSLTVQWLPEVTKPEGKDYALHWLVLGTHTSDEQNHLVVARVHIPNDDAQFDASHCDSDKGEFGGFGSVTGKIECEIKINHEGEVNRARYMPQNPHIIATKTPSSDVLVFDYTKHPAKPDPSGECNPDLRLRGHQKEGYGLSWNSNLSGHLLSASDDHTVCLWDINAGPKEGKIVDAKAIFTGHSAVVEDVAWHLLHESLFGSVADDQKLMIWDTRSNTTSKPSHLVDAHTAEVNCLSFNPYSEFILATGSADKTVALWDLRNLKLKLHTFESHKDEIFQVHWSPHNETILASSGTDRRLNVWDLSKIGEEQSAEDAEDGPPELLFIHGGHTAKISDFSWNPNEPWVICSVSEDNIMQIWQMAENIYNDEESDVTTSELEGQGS
T7 sequence (P40763 whole entry): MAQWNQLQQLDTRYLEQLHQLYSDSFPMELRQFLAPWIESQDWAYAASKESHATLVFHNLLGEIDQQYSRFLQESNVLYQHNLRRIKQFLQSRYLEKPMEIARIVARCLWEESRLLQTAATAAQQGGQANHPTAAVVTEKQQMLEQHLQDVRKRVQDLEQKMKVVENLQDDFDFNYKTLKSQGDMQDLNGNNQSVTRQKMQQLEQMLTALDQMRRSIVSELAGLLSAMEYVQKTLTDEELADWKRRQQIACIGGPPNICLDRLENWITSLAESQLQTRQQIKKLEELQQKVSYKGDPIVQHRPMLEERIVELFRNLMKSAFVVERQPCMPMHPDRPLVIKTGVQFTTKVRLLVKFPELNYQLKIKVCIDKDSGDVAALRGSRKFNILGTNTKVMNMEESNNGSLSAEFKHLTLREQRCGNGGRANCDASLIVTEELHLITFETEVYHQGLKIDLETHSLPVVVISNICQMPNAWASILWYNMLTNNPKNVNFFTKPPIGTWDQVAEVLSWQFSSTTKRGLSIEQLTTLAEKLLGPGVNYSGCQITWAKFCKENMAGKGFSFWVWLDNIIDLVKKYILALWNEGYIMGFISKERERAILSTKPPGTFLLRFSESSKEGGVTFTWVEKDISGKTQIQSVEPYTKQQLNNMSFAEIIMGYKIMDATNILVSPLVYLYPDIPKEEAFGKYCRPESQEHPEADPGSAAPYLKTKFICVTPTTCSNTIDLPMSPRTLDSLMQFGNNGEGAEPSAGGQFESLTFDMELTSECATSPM
T2 sequence (P00367 54-558): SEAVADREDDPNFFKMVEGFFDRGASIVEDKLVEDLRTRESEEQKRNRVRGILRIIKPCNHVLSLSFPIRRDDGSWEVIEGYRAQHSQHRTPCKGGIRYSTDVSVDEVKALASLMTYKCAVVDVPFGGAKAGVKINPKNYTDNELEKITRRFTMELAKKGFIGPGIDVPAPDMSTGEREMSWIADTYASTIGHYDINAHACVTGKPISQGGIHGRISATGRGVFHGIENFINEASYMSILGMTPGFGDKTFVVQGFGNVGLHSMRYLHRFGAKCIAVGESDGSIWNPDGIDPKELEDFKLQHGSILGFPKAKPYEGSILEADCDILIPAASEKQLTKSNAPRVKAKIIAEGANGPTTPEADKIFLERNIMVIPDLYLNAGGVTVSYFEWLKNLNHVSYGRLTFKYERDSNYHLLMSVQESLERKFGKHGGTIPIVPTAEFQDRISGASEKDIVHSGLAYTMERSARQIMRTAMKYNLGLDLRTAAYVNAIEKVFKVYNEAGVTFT

Compound | fold changes relative to vehicle control ([1]; HeLa, captured protein YEATS4) | fold changes relative to vehicle control ([2]; HeLa, protein GLUD1) | fold changes relative to vehicle control ([3]; HeLa, protein ANXA2) | fold changes relative to vehicle control ([4]; HeLa, protein PFKL) | fold changes relative to vehicle control ([5]; HeLa, protein MSN) | fold changes relative to vehicle control ([6]; HeLa, protein PHB) | fold changes relative to vehicle control ([7]; protein STAT3, HeLa) | fold changes relative to vehicle control ([8]; HeLa, protein TPI1) | fold changes relative to vehicle control ([9]; HeLa, protein IDI1) | fold changes relative to vehicle control ([10]; HeLa, protein RAB11B) | fold changes relative to vehicle control ([11]; HeLa, protein RBBP7) | fold changes relative to vehicle control ([12]; HeLa, protein VKORC1) | fold changes relative to vehicle control ([13]; HeLa, protein RAB1B) | fold changes relative to vehicle control ([14]; HeLa, protein HEATR1) | fold changes relative to vehicle control ([1]; HeLa, protein YEATS4) | fold changes relative to vehicle control ([2]; protein GLUD1, HeLa) | fold changes relative to vehicle control ([3]; protein ANXA2, HeLa) | fold changes relative to vehicle control ([4]; captured protein PFKL, HeLa) | fold changes relative to vehicle control ([5]; protein MSN, HeLa) | fold changes relative to vehicle control ([6]; protein PHB, HeLa) | other results
Nc1nc2c(c(=O)[nH]1)N(C=O)C(CNc1ccc(C(=O)N[C@@H](CCC(=O)O)C(=O)O)cc1)CN2 (some centres unmarked) [LEU, leucovorin] | 1.09 | 1.06 | 1 | 0.96 | 0.93 | 0.95 | 0.81 | 1.03 | 1.09 | 0.87 | 1.05 | 1.02 | 0.93 | 0.94 | – | – | – | – | – | – | –
NCCCNc1ccc(C(=O)NC(CCC(=O)O)C(=O)O)cc1 (centres unmarked) [compound 7] | 1.29 | 0.97 | 0.97 | 1.07 | 0.81 | 0.96 | 1 | 1 | 1.01 | 0.84 | 0.98 | 1.11 | 0.91 | 1.04 | – | – | – | – | – | – | –
CCCCCCOc1cccc(Cc2cnc(N)nc2N)c1 [compound 2] | – | – | – | – | – | – | 1.1 | – | – | – | – | 1.05 | – | 1.2 | 0.92 | 1.33 | 1.87 | 0.96 | 1.81 | 0.99 | fold changes relative to vehicle control [8, 15]: 2.37 fold; fold changes relative to vehicle control [9, 16]: 2.18 fold; fold changes relative to vehicle control ([10]; protein RAB11B, HeLa): 1.44; fold changes relative to vehicle control ([11]; protein RBBP7, HeLa): 1.47; fold changes relative to vehicle control ([13]; protein RAB1B, HeLa): 1.41
CCCCCCOc1ccc(Cc2cnc(N)nc2N)cc1 [compound 1] | – | – | – | – | – | – | 0.87 | – | – | – | – | 0.98 | – | 1.14 | 1.04 | 1.09 | 1.18 | 0.92 | 1.07 | 1.06 | fold changes relative to vehicle control [8, 15]: 1.44 fold; fold changes relative to vehicle control [9, 16]: 1.5 fold; fold changes relative to vehicle control ([10]; protein RAB11B, HeLa): 1.02; fold changes relative to vehicle control ([11]; protein RBBP7, HeLa): 1.05; fold changes relative to vehicle control ([13]; protein RAB1B, HeLa): 1.14
Nc1nc2cccc(-c3ccccc3)c2n1Cc1ccc(Cl)c(Cl)c1 [compound 3] | – | – | – | – | – | – | 1.15 | – | – | – | – | 1.03 | – | 1.12 | 0.99 | 0.92 | 0.9 | 1.07 | 0.77 | 0.93 | fold changes relative to vehicle control ([8]; HeLa, protein TPI1 (ISOFORM 1 OF TRIOS[…].)): 0.88 fold; fold changes relative to vehicle control ([9]; HeLa, protein IDI1 (ISOPENTENYL-D[…] ISOMERASE.)): 0.88 fold; fold changes relative to vehicle control ([10]; protein RAB11B, HeLa): 0.97; fold changes relative to vehicle control ([11]; protein RBBP7, HeLa): 0.85; fold changes relative to vehicle control ([13]; protein RAB1B, HeLa): 1.09
NCCOCCOCC(=O)Nc1nc2ncc(CNc3ccc(C(=O)NC(CCC(=O)O)C(=O)O)cc3)nc2c(=O)[nH]1 (centres unmarked) [compound 6] | 0.81 | 1.07 | 1.32 | 0.98 | 1.08 | 0.99 | 0.91 | 1.41 | 1.2 | 1.14 | 1.18 | 1.04 | 0.98 | 1.09 | – | – | – | – | – | – | –
Nc1nc2[nH]cc(CCc3ccc(C(=O)N[C@@H](CCC(=O)O)C(=O)O)cc3)c2c(=O)[nH]1 [PTX, pemetrexed] | – | – | – | – | – | – | – | – | – | – | – | – | – | – | – | – | – | – | – | – | fold changes relative to vehicle control [1]: 0.99; fold changes relative to vehicle control [2]: 1.01; fold changes relative to vehicle control [3]: 1.1; fold changes relative to vehicle control [4]: 0.89; fold changes relative to vehicle control [5]: 0.97; fold changes relative to vehicle control [6]: 0.92; fold changes relative to vehicle control [7]: 0.73; fold changes relative to vehicle control [8]: 1.22; fold changes relative to vehicle control [9]: 1.03; fold changes relative to vehicle control [10]: 0.94; fold changes relative to vehicle control [11]: 1.04; fold changes relative to vehicle control [12]: 1.01; fold changes relative to vehicle control [13]: 0.93; fold changes relative to vehicle control [14]: 0.98
